According to patent US9556179B2 (BRISTOL-MYERS SQUIBB COMPANY, priority 2012, dated 2017):

Key:
CK1ε = CK1ε (Homo sapiens (Human), UniProt P49674); assay: CK1ε kinase assay (Caliper LABCHIP electrophoretic separation of fluoresceinated peptide substrate and product); format: biochemical; settings: 200 pM enzyme, 50 μM ATP, 22 hours at room temperature
Procedure, shortened: (§1)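 Compounds, taken from 10 mM DMSO stocks, are titrated at eleven concentrations. Kinase reactions proceed for 22 hours at room temperature and are quenched with EDTA. Substrate and product are resolved electrophoretically, and IC50 values are fitted by non-linear regression.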

CK1δ = CK1δ (Homo sapiens (Human), UniProt P48730); assay: CK1δ kinase assay (Caliper LABCHIP electrophoretic separation of fluoresceinated peptide substrate and product); format: biochemical; settings: 200 pM enzyme, 50 μM ATP, 22 hours at room temperature
Sequence of CK1δ (P48730 whole entry): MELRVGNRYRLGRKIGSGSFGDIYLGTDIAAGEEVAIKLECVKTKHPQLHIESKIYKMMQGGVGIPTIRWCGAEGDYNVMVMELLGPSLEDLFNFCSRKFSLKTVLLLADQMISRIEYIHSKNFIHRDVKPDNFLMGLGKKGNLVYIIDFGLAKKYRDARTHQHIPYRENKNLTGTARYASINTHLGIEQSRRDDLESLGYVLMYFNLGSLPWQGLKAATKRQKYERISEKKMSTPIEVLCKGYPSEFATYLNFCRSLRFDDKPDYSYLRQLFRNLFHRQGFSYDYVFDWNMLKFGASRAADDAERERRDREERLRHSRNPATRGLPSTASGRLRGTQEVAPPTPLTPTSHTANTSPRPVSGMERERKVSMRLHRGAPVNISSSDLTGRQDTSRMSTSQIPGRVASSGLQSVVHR
Procedure, shortened: as §1

Sequence of CK1ε (P49674 whole entry): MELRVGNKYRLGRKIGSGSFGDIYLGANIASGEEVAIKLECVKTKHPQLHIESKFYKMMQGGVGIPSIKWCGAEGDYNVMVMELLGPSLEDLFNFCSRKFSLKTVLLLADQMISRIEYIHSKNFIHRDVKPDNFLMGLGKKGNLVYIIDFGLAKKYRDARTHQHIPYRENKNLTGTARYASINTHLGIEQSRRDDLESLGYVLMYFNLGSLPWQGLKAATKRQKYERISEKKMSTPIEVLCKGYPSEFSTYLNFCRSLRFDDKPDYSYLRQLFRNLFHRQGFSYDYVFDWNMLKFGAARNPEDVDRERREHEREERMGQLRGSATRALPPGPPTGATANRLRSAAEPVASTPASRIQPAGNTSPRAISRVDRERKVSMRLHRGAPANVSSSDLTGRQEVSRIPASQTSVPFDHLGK

Compound	IC50 (CK1ε) [nM]	IC50 (CK1δ) [nM]
Cc1nccn1CCCn1cnc(-c2ccc(F)cc2)c1-c1ccc2nc(NC(=O)c3ccnc(F)c3)cn2n1 [Compound 271, 2-fluoro-N-(6-(4-(4-fluorophenyl)-1-(3-(2-methyl-1H-imidazol-1-yl)propyl)-1H-imidazol-5-yl)imidazo[1,2-b]pyridazin-2-yl) isonicotinamide]	5.97	0.897
O=C(Nc1cn2nc(-c3c(-c4ccc(F)cc4)ncn3CCN3CCCC3=O)ccc2n1)c1ccnc(F)c1 [Compound 272, 2-fluoro-N-(6-(4-(4-fluorophenyl)-1-(2-(2-oxo-1-pyrrolidinyl)ethyl)-1H-imidazol-5-yl)imidazo[1,2-b]pyridazin-2-yl)isonicotinamide]	16.6	1.65
CCCn1cnc(-c2ccc(F)cc2)c1-c1ccc2nc(NC(=O)C(C)(C)C)cn2n1 [Compound 273, N-(6-(4-(4-Fluorophenyl)-1-propyl-1H-imidazol-5-yl)imidazo[1,2-b]pyridazin-2-yl)pivalamide]	1.01	0.257
CC(C)(C)C(=O)Nc1cn2nc(-c3c(-c4ccc(F)cc4)ncn3CCO)ccc2n1 [Compound 274, N-(6-(4-(4-fluorophenyl)-1-(2-hydroxyethyl)-1H-imidazol-5-yl)imidazo[1,2-b]pyridazin-2-yl)pivalamide]	8.98	0.635
CC(C)(C)C(=O)Nc1cn2nc(-c3c(-c4ccc(F)cc4)ncn3Cc3ccccc3)ccc2n1 [Compound 275, N-(6-(1-benzyl-4-(4-fluorophenyl)-1H-imidazol-5-yl)imidazo[1,2-b]pyridazin-2-yl)pivalamide]	4.23	0.545
CC(C)(C)C(=O)Nc1cn2nc(-c3[nH]cnc3-c3ccc(F)cc3)ccc2n1 [Compound 276, N-(6-(4-(4-fluorophenyl)-1H-imidazol-5-yl)imidazo[1,2-b]pyridazin-2-yl)pivalamide]	35.9	3.88
CC(C)(C)C(=O)Nc1cn2nc(-c3c(-c4ccc(F)cc4)ncn3CC3CNC(=O)C3)ccc2n1 (stereo not drawn) [Compound 277, N-(6-(4-(4-fluorophenyl)-1-((5-oxo-pyrrolidin-3-yl)methyl)-1H-imidazol-5-yl)imidazo[1,2-b]pyridazin-2-yl)pivalamide]	3.82	0.238
Cc1cc(Cn2cnc(-c3ccc(F)cc3)c2-c2ccc3nc(NC(=O)C(C)(C)C)cn3n2)no1 [Compound 278, N-(6-(4-(4-fluorophenyl)-1-((5-methyl-isoxazol-3-yl)ylmethyl)-1H-imidazol-5-yl)imidazo[1,2-b]pyridazin-2-yl)pivalamide]	5.43	0.444
CC(C)(C)C(=O)Nc1cn2nc(-c3c(-c4ccc(F)cc4)ncn3Cc3ccoc3)ccc2n1 [Compound 279, N-(6-(4-(4-fluorophenyl)-1-(furan-3-ylmethyl)-1H-imidazol-5-yl)imidazo[1,2-b]pyridazin-2-yl)pivalamide]	0.887	0.169
COCCn1cnc(-c2ccc(F)cc2)c1-c1ccc2nc(NC(=O)C(C)(C)C)cn2n1 [Compound 280, N-(6-(4-(4-fluorophenyl)-1-(2-methoxy-ethyl)-1H-imidazol-5-yl)imidazo[1,2-b]pyridazin-2-yl)pivalamide]	2.49	0.52
CC(C)(C)C(=O)Nc1cn2nc(-c3c(-c4ccc(F)cc4)ncn3Cc3cccnc3)ccc2n1 [Compound 281, N-(6-(4-(4-fluorophenyl)-1-(pyridin-3-ylmethyl)-1H-imidazol-5-yl)imidazo[1,2-b]pyridazin-2-yl)pivalamide]	7.79	1.81
CC(C)(C)C(=O)Nc1cn2nc(-c3c(-c4ccc(F)cc4)ncn3CCc3cccnc3)ccc2n1 [Compound 282, N-(6-(4-(4-fluorophenyl)-1-(2-(pyridin-3-yl)ethyl)-1H-imidazol-5-yl)imidazo[1,2-b]pyridazin-2-yl)pivalamide]	13.2	0.766
